Here are results for 14 compounds from patent publication US6476242B1 (Bristol-Myers Squibb Company, priority 1997, dated 2002).

Several values for one entry are separate records, joined by “and”; a condition that tells them apart may be missing. Identical values can stand only once.

One experiment relates to 116/VM46. The experiment can be described thus: 116/VM46 activity, resistant line (Table 1). Conditions: for IC50: 116/VM46 cells, unit inferred; for R/S ratio: ratio 116/VM46 (resistant) to HCT116 (sensitive). The experiment is classed as cell-based.
In a further experiment the test system is Tubulin. Kind of experiment: Tubulin Data (Table 1). In kind it is biochemical. Conditions: ratio analog/paclitaxel for tubulin data.
A further experiment concerns HCT116. Kind of experiment: HCT116 activity (Table 1). The experiment is classed as cell-based. Particulars: for IC50: HCT116 cells, unit inferred; for anal/PT (beside HCT116 and 116/VM46): ratio analog/paclitaxel in HCT116.

For orientation: IC50 means the concentration that gives 50% inhibition. A low value points to greater potency. `COc1cccc(C(=O)O[C@H]2[C@@H]3[C@]4(OC(=O)C5CC5)CO[C@@H]4C[C@H](O)[C@@]3(C)C(=O)[C@H](OC(C)=O)C3=C(C)[C@@H](OC(=O)[C@H](O)[C@@H](NC(=O)c4ccccc4)c4ccccc4)C[C@]2(O)C3(C)C)c1` [MC-134-45, 2-(m-methoxybz)-4-cyclopropylCO-PT]: in the experiment on 116/VM46, the IC50 was found to be 40 nM and the R/S ratio is given as 20. Besides, the “anal/PT (beside Tubulin Data)” value in the experiment with Tubulin turned out to be 1.3. The compound also showed an IC50 with HCT116 of 2 nM.

Consider `COC(=O)O[C@@]12CO[C@@H]1C[C@H](O)[C@@]1(C)C(=O)[C@H](OC(C)=O)C3=C(C)[C@@H](OC(=O)[C@H](O)[C@@H](NC(=O)c4ccccc4)c4ccccc4)C[C@@](O)([C@@H](OC(=O)c4cccc(OC)c4)[C@H]21)C3(C)C` [MC-134-61, 2-(m-methoxybenzoyl)-4-MeOCO-PT], for which, in the experiment on 116/VM46, the R/S ratio turned out to be 129. Further, the “anal/PT (beside Tubulin Data)” value in the experiment with Tubulin worked out at 0.9. Also, the IC50 in the experiment on HCT116 is 6.7 nM and 4.4 nM.

Consider `COC(=O)O[C@@]12CO[C@@H]1C[C@H](O)[C@@]1(C)C(=O)[C@H](OC(C)=O)C3=C(C)[C@@H](OC(=O)[C@H](O)[C@@H](NC(=O)c4ccccc4)c4ccccc4)C[C@@](O)([C@@H](OC(=O)c4cccc(C)c4)[C@H]21)C3(C)C` [MC-134-68, 2-(m-methylbenzoyl)-4-MeOCO-PT], for which the IC50 came to 44 nM in the experiment on 116/VM46 and 2.1 nM in the experiment on HCT116. Besides, the R/S ratio with 116/VM46 came out at 21. Also, the “anal/PT (beside Tubulin Data)” value in the experiment with Tubulin was determined as 0.8.

Regarding `CC(=O)O[C@H]1C(=O)[C@@]2(C)[C@H]([C@H](OC(=O)c3cccc(N=[N+]=[N-])c3)[C@]3(O)C[C@H](OC(=O)[C@H](O)[C@@H](NC(=O)c4ccccc4)c4ccccc4)C(C)=C1C3(C)C)[C@]1(OC(=O)C3CC3)CO[C@@H]1C[C@@H]2O` [MC-134-91, 2-m-azido-4-cyclopropylCO-PT], in the experiment on 116/VM46, the IC50 was 28 nM and < 16 nM; the R/S ratio is 10.4. In the experiment on Tubulin, the “anal/PT (beside Tubulin Data)” value amounted to 0.08.

For `CC(=O)O[C@H]1C(=O)[C@@]2(C)[C@H]([C@H](OC(=O)c3cccc(Cl)c3)[C@]3(O)C[C@H](OC(=O)[C@H](O)[C@@H](NC(=O)c4ccccc4)c4ccccc4)C(C)=C1C3(C)C)[C@]1(OC(=O)C3CC3)CO[C@@H]1C[C@@H]2O` [MC-134-92, 2-m-chloro-4-cyclopropylCO-PT], in the experiment on 116/VM46, the IC50 is 30 nM and < 16 nM; the R/S ratio was 18. Moreover, the “anal/PT (beside Tubulin Data)” value in the experiment on Tubulin is recorded as 0.06. For the same compound, the half-maximal inhibitory concentration (IC50) with HCT116 was 1.7 nM and 1.1 nM.

On to `COC(=O)OC12COC1CC(O)C1(C)C(=O)C(OC(C)=O)C3=C(C)C(OC(=O)C(O)C(NC(=O)c4ccccc4)c4ccccc4)CC(O)(C(OC(=O)c4cccc(Cl)c4)C21)C3(C)C` (stereo not shown) [MC-134-100, 2-m-chloro-4-MeOCO-PT], for which the IC50 in the experiment on 116/VM46 turned out to be 82 nM; in the experiment with HCT116, 2.2 nM. The R/S ratio in the experiment with 116/VM46 turned out to be 37. Besides, in the experiment with Tubulin, the “anal/PT (beside Tubulin Data)” value is 0.4.

For `COc1cccc(C(=O)O[C@H]2[C@@H]3[C@]4(OC(=S)SC)CO[C@@H]4C[C@H](O)[C@@]3(C)C(=O)[C@H](OC(C)=O)C3=C(C)[C@@H](OC(=O)[C@H](O)[C@@H](NC(=O)c4ccccc4)c4ccccc4)C[C@]2(O)C3(C)C)c1` [MC-134-229, 2-(m-methoxybenzoyl-4-xanthyl)PT], in the experiment on 116/VM46, half-maximal inhibition (IC50) was put at 53.2 nM and the R/S ratio came to 11.32. In addition, the “anal/PT (beside Tubulin Data)” value with Tubulin came to 8.9. Besides, in the experiment with HCT116, the IC50 is 4.7 nM; the “anal/PT (beside HCT116 and 116/VM46)” value came out at 3.08.

`CSC(=S)O[C@@]12CO[C@@H]1C[C@H](O)[C@@]1(C)C(=O)[C@H](OC(C)=O)C3=C(C)[C@@H](OC(=O)[C@H](O)[C@@H](NC(=O)c4ccccc4)c4ccccc4)C[C@@](O)([C@@H](OC(=O)c4cccc(Cl)c4)[C@H]21)C3(C)C` [MC-134-238, 2-(m-chlorobenzoyl-4-xanthyl)PT]: in the experiment on 116/VM46, half-maximal inhibition (IC50) required 58.6 nM and the R/S ratio is given as 10.34. Moreover, the “anal/PT (beside Tubulin Data)” value with Tubulin is 3.5. In addition, in the experiment on HCT116, the midpoint of inhibition, the IC50, lay at 5.7 nM; the “anal/PT (beside HCT116 and 116/VM46)” value is on record as 3.72.

Take `CSC(=S)O[C@@]12CO[C@@H]1C[C@H](O)[C@@]1(C)C(=O)[C@H](OC(C)=O)C3=C(C)[C@@H](OC(=O)[C@H](O)[C@@H](NC(=O)c4ccccc4)c4ccccc4)C[C@@](O)([C@@H](OC(=O)c4cccc(N=[N+]=[N-])c4)[C@H]21)C3(C)C` [MC-134-239, 2-(m-azidobenzoyl-4-xanthyl)PT]: in the experiment with 116/VM46, it took 135 nM to reach half-maximal inhibition (IC50) and the R/S ratio is 8.03. The “anal/PT (beside Tubulin Data)” value with Tubulin is 42. Further, in the experiment on HCT116, the IC50 amounted to 16.8 nM; the “anal/PT (beside HCT116 and 116/VM46)” value was determined as 11.02.

Turning to `CC(=O)OC1C(=O)C2(C)C(O)CC3OCC3(OC(=O)C3CC3)C2C(OC(=O)c2ccc(Cl)cc2Cl)C2(O)CC(OC(=O)C(O)C(NC(=O)c3ccccc3)c3ccccc3)C(C)=C1C2(C)C` (stereo not shown) [MC-134-247, 2-(2,4-dichlorobz)-4-cyclopropylCO-PT], in the experiment on 116/VM46, the IC50 stood at 76.6 nM and the R/S ratio is listed as 30.64. For the same compound, the “anal/PT (beside Tubulin Data)” value in the experiment on Tubulin was 0.7. Further, in the experiment with HCT116, the IC50 was 2.5 nM; the “anal/PT (beside HCT116 and 116/VM46)” value is listed as 1.09.

For `CC(=O)OC1C(=O)C2(C)C(O)CC3OCC3(OC(=O)C3CC3)C2C(OC(=O)c2ccc(F)cc2F)C2(O)CC(OC(=O)C(O)C(NC(=O)c3ccccc3)c3ccccc3)C(C)=C1C2(C)C` (stereo not shown) [MC-134-248, 2-(2,4-difluorobz)-4-cyclopropylCO-PT], in the experiment on 116/VM46, the IC50 amounted to 8.2 nM and the R/S ratio is given as 3.86. The “anal/PT (beside Tubulin Data)” value in the experiment with Tubulin was 0.2. Also, in the experiment with HCT116, half-maximal inhibition (IC50) required 2.1 nM; the “anal/PT (beside HCT116 and 116/VM46)” value is 1.03.

Consider `COc1ccc(OC)c(C(=O)O[C@H]2[C@@H]3[C@]4(OC(=O)C5CC5)CO[C@@H]4C[C@H](O)[C@@]3(C)C(=O)[C@H](OC(C)=O)C3=C(C)[C@@H](OC(=O)[C@H](O)[C@@H](NC(=O)c4ccccc4)c4ccccc4)C[C@]2(O)C3(C)C)c1` [MC-134-250, 2-(2,5-dimethoxybz)-4-cyclopropylCO-PT], for which, in the experiment on 116/VM46, the IC50 was 45.1 nM and the R/S ratio turned out to be 25.06. Besides, the “anal/PT (beside Tubulin Data)” value with Tubulin came to 0.5. Also, in the experiment on HCT116, the IC50 came out at 1.8 nM; the “anal/PT (beside HCT116 and 116/VM46)” value turned out to be 0.78.

Take `CC(=O)OC1C(=O)C2(C)C(O)CC3OCC3(OC(=O)c3cccc(Cl)c3)C2C(OC(=O)c2cccc(Cl)c2)C2(O)CC(OC(=O)C(O)C(NC(=O)c3ccccc3)c3ccccc3)C(C)=C1C2(C)C` (stereo not shown) [MC-134-277, 2-(m-Cl-benzoyl)-4-(m-Cl-benzoyl)PT]: the IC50 in the experiment on 116/VM46 was 2460 nM; with HCT116 it was 2430 nM. For the same compound, in the experiment with Tubulin, the “anal/PT (beside Tubulin Data)” value came out at 144.

Consider `CC(=O)O[C@H]1C(=O)[C@@]2(C)[C@H]([C@H](OC(=O)c3ccccc3)[C@]3(O)C[C@H](OC(=O)[C@H](O)[C@@H](NC(=O)c4ccccc4)c4ccccc4)C(C)=C1C3(C)C)[C@]1(OC(C)=O)CO[C@@H]1C[C@@H]2O` [paclitaxel (PT), paclitaxel, reference compound], for which the IC50 in the experiment with 116/VM46 was 203 nM; in the experiment with HCT116, 2 nM. For the same compound, in the experiment on Tubulin, the “anal/PT (beside Tubulin Data)” value worked out at 1.
